Patent EP0533344B1, “Methanoanthracenes as dopamine antagonists” (ZENECA LIMITED, priority 1991, dated 1993)
Where two headings read alike, the source gives them in different places.

Assays:
[1] = biological target: T1, dopamine (DA) D-2 receptor subtype (Rattus norvegicus, UniProt P61169); experiment: Test A: dopamine D-2 receptor binding assay, displacement of [3H]-spiperone
T1 construct: Specifically, rat striatal membranes were used; from tissue; host or cells: rat striatum (membranes)
Excerpt: (§1) The compounds of Formula I are antagonists of dopamine D-2 receptors, and as such are predicted to be useful as antipsychotic drugs. D-2 antagonism can be shown by standard tests such as antagonism of [^3H]-spiperone binding (Test A), and/or antagonism of apomorphine-induced climbing and apomorphine- induced disruption of swimming (Test B).
The receptor binding assay used to measure affinities of various compounds for the dopamine (DA) D-2 receptor subtype was that described by Saller and Salama in J Pharmacol Exp Ther 236, page 714, 1986.
Specifically, rat striatal membranes were used. Tissue membranes were prepared and washed once in 50 volumes of the appropriate Tris HCl buffer. For the D-2 receptor binding assay, striatal membranes were suspended to a final concentration of 8 mg/ml in 50 mM Tris HCl with 40 nM ketanserin, pH 7.7. Nonspecific binding to D-2 receptors was measured in the presence of 1.0 µM (+)-butaclamol. IC50s (drug concentration which produced a 50% displacement) for the displacement of 0.5 nM [^3H] spiperone were determined using at least five concentrations of each drug in triplicate. One-half milliliter of membrane suspension was incubated with the compound of interest or vehicle or nonspecific drug, ligand and appropriate Tris HCl buffer. […] The amount of drug bound to the membranes was assessed using liquid scintillation counting techniques. […]

[2] = test system: Female Swiss-Webster mice; experiment: Test B: antagonism of apomorphine-induced climbing and apomorphine-induced disruption of swimming; assay type: in vivo; details: Mus musculus, po, read-out: minimum effective dose
Description: as §1
Female Swiss-Webster mice weighing approximately 20 g were deprived of food for approximately 24 h and then dosed orally with various doses of either the vehicle or test agent over a range of doses (N = 20 mice per treatment group). Thirty minutes later they were dosed with apomorphine HCl at 1.25 mg/kg, sc, and placed into climbing cages. The climbing cages were 9 cm wide, 15 cm deep and 30 cm high. One wall had 27 horizontal rungs spaced 1 cm apart. Thirteen minutes after apomorphine each mouse was observed continuously for 1 min and the highest and lowest rung reached by its front paws was recorded. […] (The highest and lowest scores were 27 and 0, respectively.) Immediately after the 1-min climbing observation period each mouse was placed into a circular swimming tank for 2 min and the number of swims was counted. […] A "swim" was scored each time a mouse swam from one mark to the other. The mice were observed through overhead mirrors and the number of 180 degree swims was recorded for each mouse. […]

T1 sequence (P61169 whole entry): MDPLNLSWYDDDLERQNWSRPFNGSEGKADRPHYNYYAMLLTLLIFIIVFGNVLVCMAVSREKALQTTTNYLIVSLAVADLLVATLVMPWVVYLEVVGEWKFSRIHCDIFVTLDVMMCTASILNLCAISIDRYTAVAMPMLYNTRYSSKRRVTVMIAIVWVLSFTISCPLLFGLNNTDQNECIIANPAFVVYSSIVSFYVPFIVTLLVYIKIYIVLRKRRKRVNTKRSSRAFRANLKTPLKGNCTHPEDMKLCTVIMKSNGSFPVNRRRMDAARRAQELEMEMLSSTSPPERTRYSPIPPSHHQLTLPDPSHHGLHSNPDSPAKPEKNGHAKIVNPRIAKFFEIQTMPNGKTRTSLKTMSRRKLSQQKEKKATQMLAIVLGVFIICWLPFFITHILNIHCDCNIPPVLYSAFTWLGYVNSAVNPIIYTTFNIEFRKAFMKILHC

Row | SMILES | IC50 ([1]; displacement of 0.5 nM [3H] spiperone, rat striatal membranes, 37°C for 15 min, typical result, read-out: IC50) | minimal effective dose ([2]; dosed orally 30 min before apomorphine HCl 1.25 mg/kg sc, decreased climbing score with increased swimming score, typical result) | IC50 [1] | minimal effective dose [2]
1 | CC(C)(C)C1(O)CCN(CC23CC(c4ccccc42)c2ccc(Cl)cc23)CC1 (stereo not shown) [Example 49, 1-(2-Chloro-9,10-dihydro-9,10-methanoanthracen-9-ylmethyl)-4-(1,1-dimethylethyl)piperidin-4-ol] | 3 nM | 1.3 mg/kg |  | 
2 | OC1(c2cccnc2)CCN(CC23CC(c4ccccc42)c2ccccc23)CC1 [Example 5, 1-(9,10-Dihydro-9,10-methanoanthracen-9-ylmethyl)-4-(3-pyridyl)piperidin-4-ol] |  |  | 12 nM | 20 mg/kg
